The target in the assay is dopamine autoreceptor (Rattus norvegicus, UniProt P61169). As to the kind of experiment: Affinity for the dopamine autoreceptor, 3H-quinpirole binding in homogenized rat striatal brain tissue. As to conditions: for IC50: 3H-quinpirole, homogenized rat striatal brain tissue, read-out: IC50 (nM) D2 Quin.; for Ratio: ratio of IC50 D2 Spiper to IC50 D2 Quin. (LowAg/HighAg, predicts intrinsic activity).
dopamine autoreceptor, sequence (P61169 whole entry): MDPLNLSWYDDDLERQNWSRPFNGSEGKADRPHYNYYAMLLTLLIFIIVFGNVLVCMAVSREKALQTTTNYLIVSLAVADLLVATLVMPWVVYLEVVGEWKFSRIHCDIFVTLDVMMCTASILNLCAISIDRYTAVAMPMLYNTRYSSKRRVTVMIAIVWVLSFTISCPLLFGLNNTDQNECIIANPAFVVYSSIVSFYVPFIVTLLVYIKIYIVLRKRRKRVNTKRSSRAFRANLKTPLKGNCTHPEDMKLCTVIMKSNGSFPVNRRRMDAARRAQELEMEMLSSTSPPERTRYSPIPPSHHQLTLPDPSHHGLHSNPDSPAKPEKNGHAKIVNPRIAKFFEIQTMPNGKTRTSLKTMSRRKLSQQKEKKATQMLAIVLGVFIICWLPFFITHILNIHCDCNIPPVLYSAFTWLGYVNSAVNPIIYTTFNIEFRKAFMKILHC

As a reminder, the IC50 is the concentration at which inhibition is half-maximal. In the case of `O=C1Cc2c(OCCN3Cc4ccccc4C3)ccc(F)c2N1` [Example 19, 4-[2-(1,3-Dihydro-isoindol-2-yl)-ethoxy]-7-fluoro-1,3-dihydro-indol-2-one], the IC50 is 3.57 nM.
Take `O=C1Cc2c(OCCN3CCc4ccccc4C3)ccc(Cl)c2N1` [Example 9, 7-Chloro-4-[2-(3,4-dihydro-1H-isoquinolin-2-yl)-ethoxy]-1,3-dihydro-indol-2-one]: the IC50 was determined as 1.31 nM and the Ratio is 62.
`O=C1Cc2c(OCCN3CCc4ccccc4C3)ccc(F)c2N1` [Example 22, 4-[2-(3,4-Dihydro-1H-isoquinolin-2-yl)-ethoxy]-7-fluoro-1,3-dihydro-indol-2-one]: the IC50 is 1.84 nM.
In the case of `O=C1Cc2c(OCCNCc3ccc(-c4ccccc4)cc3)ccc(Cl)c2N1` [Example 11, 4-{2-[(Biphenyl-4-ylmethyl)-amino]-ethoxy}-7-chloro-1,3-dihydro-indol-2-one], the IC50 was found to be 41.1 nM.
Take `CCCCNCCOc1ccc(Cl)c2c1CC(=O)N2` [Example 8, 4-(2-Butylamino-ethoxy)-7-chloro-1,3-dihydro-indol-2-one]: the IC50 was 1.89 nM and the Ratio is given as 76.
Take `O=C1Cc2c(OCCNCc3ccccc3)ccc(F)c2N1` [Example 15, 4-(2-Benzylamino-ethoxy)-7-fluoro-1,3-dihydro-indol-2-one]: the IC50 is 0.91 nM and the Ratio is 76.
Consider `Cc1ccc(CNCCOc2ccc(Cl)c3c2CC(=O)N3)cc1` [Example 6], for which the IC50 worked out at 1.1 nM and the Ratio is 52.
In the case of `NCCOc1cccc2c1CC(=O)N2` [Example 3, 4-(2-Amino-ethoxy)-1,3-dihydro-indol-2-one], the IC50 was 13.9 nM and the Ratio is given as 246.
Regarding `CN(CCOc1ccc(Cl)c2c1CC(=O)N2)Cc1ccccc1` [Example 7, 4-[2-(N-Benzyl-N-methyl-amino)-ethoxy]-7-chloro-1,3-dihydro-indol-2-one], the IC50 worked out at 3.68 nM and the Ratio is listed as 63.
For the compound `CN(CCCC(=O)c1ccc(F)cc1)CCOc1cccc2c1CC(=O)N2` [Example 27, 4-(2-{[4-(4-Fluoro-phenyl)-4-oxo-butyl]-methyl-amino}-ethoxy)-1,3-dihydro-indol-2-one], the IC50 turned out to be 6.22 nM and the Ratio is given as 57.
As for `O=C1Cc2c(OCCNCc3ccc4ccccc4c3)ccc(F)c2N1` [Example 21, 7-Fluoro-4-{2-[(napthalen-2-ylmethyl)-aminol]-ethoxy}-1,3-dihydro-indol-2-one], the IC50 was 1.27 nM.
Turning to `O=C1Cc2c(OCCNCC3CCCCC3)ccc(F)c2N1` [Example 16, 4-[2-(Cyclohexylmethyl-amino)-ethoxy)-7-fluoro-1,3-dihydro-indol-2-one], the IC50 is 1.58 nM and the Ratio was 63.
For `CN(CCOc1cccc2c1CC(=O)N2)Cc1ccccc1` [Example 25, 4-[2-(Benzyl-methyl-amino)-ethoxy]-1,3-dihydro-indol-2-one] the same measures were 1.52 nM and 424.
As to `O=C1Cc2c(OCCNCCCc3c[nH]c4ccccc34)ccc(F)c2N1` [Example 18, 4-{2-[3-(1H-Indol-yl)-propylamino]-ethoxy}-7-fluoro-1,3-dihydro-indol-2-one], the IC50 worked out at 0.3 nM.
With `CNCCOc1cccc2c1CC(=O)N2` [Example 2, 4-(2-Methylamino-ethoxy)-1,3-dihydro-indol-2-one], the IC50 is 4.31 nM and the Ratio was 213.
With `O=C1Cc2c(cccc2OCCNCCCCc2ccccc2)N1` [Example 13], the IC50 was 0.45 nM and the Ratio is listed as 55.
For `O=C1Cc2c(OCCNCc3ccccc3)ccc(Cl)c2N1` [Example 14, 4-(2-Benzylamino-ethoxy)-7-chloro-1,3-dihydro-indol-2-one], the IC50 is 0.82 nM and the Ratio is 44.
The matching figures for `Cc1cccc(CN(CCOc2cccc3c2CC(=O)N3)Cc2cccc(C)c2)c1` [Example 26, 4-{2-[Bis-(3-methyl-benzyl)-amino]-ethoxy}-1,3-dihydro-indol-2-one]: 31.2 nM and 619.
Consider `O=C1Cc2c(cccc2OCCNCc2ccccc2)N1` [Example 1, 4-(2-Benzylaminoethoxy)-1,3-dihydro-indol-2-one], for which the IC50 amounted to 0.41 nM and the Ratio is recorded as 354.
In the case of `O=C1Cc2c(OCCNCc3ccc(F)cc3)ccc(Cl)c2N1` [Example 4], the 50% inhibitory concentration (IC50) was found to be 2.54 nM and the Ratio was 69.
As for `O=C1Cc2c(OCCNCc3ccc(Cl)cc3)ccc(Cl)c2N1` [Example 5], the IC50 worked out at 2.81 nM and the Ratio is 19.
For the compound `O=C1Cc2c(OCCNCc3ccc(-c4ccccc4)cc3)ccc(F)c2N1` [Example 20, 4-{2-[(Biphenyl-4-ylmethyl)-amino]-ethoxy}-7-fluoro-1,3-dihydro-indol-2-one], the IC50 was determined as 11.1 nM.
`O=C1Cc2c(OCCN3Cc4ccccc4C3)ccc(Cl)c2N1` [Example 10, 7-Chloro-4-[2-(1,3-dihydro-isoindol-2-yl)-ethoxy]-1,3-dihydro-indol-2-one]: the IC50 turned out to be 0.55 nM.

Values taken from patent EP0923551B1, “4-AMINOETHOXY INDOLONE DERIVATIVES” (AMERICAN HOME PRODUCTS CORPORATION, priority 1996, dated 1998).
